Assay results: patent publication US7915245B2, “Methods and compositions of trail-death receptor agonists/activators” (The Board of Regents of the University of Texas System, priority 2007, dated 2011)

What was measured:
[1] = test system: mesothelioma M9K cell line; assay: XTT cell viability, mesothelioma M9K; type: cell-based; settings: then DRA 72 h; for effect of NFκB inhibitor MG132 on the inhibitory effect on cell viability: MG132 2.5 μM 4 h; for effect of pan caspase inhibitor (z-VAD-fmk) on the inhibitory effect on cell viability: z-VAD-fmk 25 μM 2 h pretreatment
Description: FIG. 43. […] Mesothelioma M9K cells were treated with NFκB inhibitor MG132 (2.5 μM) for 4 h followed by treatment with various concentrations of DRA11, DRA9, and DRA9S for 72 h. At the end of incubation, cell viability was measured by XTT assay. Data represent the mean±S.D.
FIG. 52. […] M9K cells were pretreated with either control peptide (10 μM) or pan caspase inhibitor (z-VAD-fmk, 25 μM) for 2 h, followed by treatment with various doses of DRA11, DRA9 and DRA9S for 72 h. At the end of incubation, cell viability was measured by XTT assay. Data represent the mean±S.D.
(§1) XTT Assay. Cells (1×10^4 cells per well) were seeded in 96-well plates (flat bottom), and treated with death receptor agonists/activators/small molecules in the presence or absence of TNF-related apoptosis inducing ligand (TRAIL). Plates were incubated for various time points at 37° C. and 5% CO2. Before the end of the experiment, 50 μl XTT (sodium 3′[1-(phenylaminocarbonyl)-3,4-tetrazolium]-bis(4-methoxy-6-nitro) benzene sulfonic acid hydrate) labeling mixture (final concentration, 125 μM sodium XTT and 25 μM PMS) per well was added and plates were incubated for a further 4 h at 37° C. and 5% CO2. The spectrophotometric absorbance of the sample was measured using a microtitre plate (ELISA) reader. The wavelength to measure absorbance of the formazan product was 450 nm, and the reference wavelength was 650 nm.

AsPC-1 cells = assay: XTT cell viability with caspase inhibitor pretreatment, AsPC-1; type: cell-based, human; settings: then DRA 72 h; for effect of caspase-3 inhibitor (z-DEVD-fmk) on the DRA effect on cell viability: Z-DEVD-fmk 25 μM 2 h pretreatment; for effect of caspase-8 inhibitor (Ac-IETD-CHO) on the DRA effect on cell viability: caspase-8 inhibitor 25 μM 2 h pretreatment; for effect of pan caspase inhibitor (z-VAD-fmk) on the DRA effect on cell viability: inhibitor 25 μM 2 h pretreatment
Description: (§2) FIG. 5. […] AsPC-1 cells were pretreated with either control peptide (25 μM) or caspase-3 inhibitor (Z-DEVD-fmk, 25 μM) for 2 h, followed by treatment with various doses of DRA11, DRA9 and DRA9S for 72 h. At the end of incubation, cell viability was measured by XTT assay. Data represent the mean±S.D. Control refers to a group treated with DMSO (0.01%).
as §2, with “6.” for “5.”, “caspase-8” for “caspase-3”, “(25” for “(Z-DEVD-fmk, 25”
as §2, with “7.” for “5.”, “caspase-8” for “caspase-3”, “(25” for “(Z-DEVD-fmk, 25”
as §1
(§3) AsPC-1 cells were pretreated with either control peptide (25 μM) or caspase-3 inhibitor (Z-DEVD-fink, 25 μM) for 2 h, followed by treatment with various doses of DRA11, DRA9 and DRA9S for 72 h. At the end of incubation, cell viability was measured by XTT assay. See, for example, FIG. 5. Data represent the mean±S.D. Control refers to a group treated with DMSO (0.01%).
as §3, with “caspase-8” for “caspase-3”, “(25” for “(Z-DEVD-fink, 25”, “6.” for “5.”
as §3, with “caspase-8” for “caspase-3”, “(25” for “(Z-DEVD-fink, 25”, “7.” for “5.”

[2] = test system: pancreatic cancer AsPC-1 cells xenografted; assay: AsPC-1 xenograft tumor growth; type: in vivo, Balb c nude mice; settings: 20, 40 mg/kg iv, 5 days per week
Description: FIG. 27. […] AsPC-1 cells (2×10^6 cells as a 50% suspension in Matrigel, Becton Dickinson, Bedford, Mass., in a final volume of 0.1 ml) were injected subcutaneously in the right flank of Balb c nude mice. After tumor formation (about 100 mm^3), nude mice (10 per group) were treated (iv) with vehicle control (0.1 ml normal saline), DRA11 (20 mg/kg, 0.1 ml volume), and DRA11 (40 mg/kg, 0.1 ml volume) everyday 5 days per week throughout the duration of the experiment. Tumor volume was calculated using the equation: (volume=length×width×depth×0.5236 mm^3).
FIG. 31. […] MDA-MB-468 cells (2×10^6 cells, in a final volume of 0.1 ml PBS) were injected subcutaneously in the right flank of Balb c nude mice. […] Tumor volume was calculated using the equation: (volume=length×width×depth×0.5236 mm^3). […]
AsPC-1 cells (2×10^6 cells as a 50% suspension in Matrigel, Becton Dickinson, Bedford, Mass., in a final volume of 0.1 ml) were injected subcutaneously in the right flank of Balb c nude mice. […] Tumor volume was calculated using the equation: (volume=length×width×depth×0.5236 mm^3). […]
MDA-MB-468 cells (2×10^6 cells, in a final volume of 0.1 ml PBS) were injected subcutaneously in the right flank of Balb c nude mice. […] Tumor volume was calculated using the equation: (volume=length×width×depth×0.5236 mm^3). […]

Row | Compound | effect of NFκB inhibitor MG132 on the inhibitory effect on cell viability [1] | effect of pan caspase inhibitor (z-VAD-fmk) on the inhibitory effect on cell viability [1] | effect of caspase-3 inhibitor (z-DEVD-fmk) on the DRA effect on cell viability (AsPC-1 cells) | effect of caspase-8 inhibitor (Ac-IETD-CHO) on the DRA effect on cell viability (AsPC-1 cells) | effect of pan caspase inhibitor (z-VAD-fmk) on the DRA effect on cell viability (AsPC-1 cells) | growth of xenografted AsPC-1 tumors (tumor volume) [2]
1 | CCOc1cc(Br)c(Br)c(/C=N/c2cccc(C(=O)O)c2)c1O [DRA9] | enhances the inhibitory effects | blocks the inhibitory effects | blocks the effects | blocks the effects | blocks effects | 
2 | CCOc1cc(Br)c(Br)c(/C=N/c2cccc(C(=O)O)c2C)c1O [DRA9S] | enhances the inhibitory effects | blocks the inhibitory effects | blocks the effects | blocks the effects | blocks effects | inhibits growth
